Values joined by “and” are separate entries in the source; they are usually repeats but may differ in a detail not shown here. Equal values may be shown once. “Also recorded” adds a separate entry of the source. Read-outs that look alike come from different tables or passages of the source.
Experiments:
CAK (CDK7) = CAK (CDK7) (Homo sapiens, UniProt P50613); assay: IMAP CAK TR-FRET counter-screen; format: biochemical; settings: read-out: IC50 CAK(CDK7) (Ave ± SD)
Procedure: (§1) Automated, highthroughput screening (HTS) formatted IMAP-based AKT fluorescent polarization assay (AKT FP), and PLK1 and CAK TR-FRET assays were used to assess the specificity of the PKD analogs as previously described. See Sharlow, E. R., et. al., J. Biol Chem, 283: 33516-33526, (2008). For the PLK2 IMAP TR-FRET assay, PLK2 kinase reactions were generated by the stepwise addition of a 3-fold excess concentration of substrate/ATP (1650 nM/105 μM), analog, and PLK2 enzyme (1.02 milliunits/μL). PLK2 kinase reactions were incubated for 150 min at room temperature and stopped with the addition of an IMAP binding reagent supplemented with terbium. Assay plates were then incubated overnight. Analysis was performed as described in the literature. Id.
(§2) The PLK2 substrate (FAM-[…]) was obtained from Molecular Devices (Sunnyvale, Calif.). H-89 was used as a positive inhibitory control compound in the assays. A 10 point concentration range for each compound to be tested was used to determine IC50 values. The maximum concentration of a particular compound used in this assay was either 50 μM, or 100 μM, depending on the solubility of the individual compounds. Each experiment was assayed in triplicate and data is represented as average IC50±SD. The IC50 determinations for each analog evaluated in the IMAP (PLK2, PLK1, CAK, and AKT) formats were conducted within the linear range of the captured signal readout.

AKT = assay: IMAP-based AKT fluorescent polarization counter-screen; format: biochemical; settings: read-out: IC50 AKT (Ave ± SD)
Procedure: as §1, §2

PLK2 = PLK2 (Homo sapiens, UniProt Q9NYY3); assay: PLK2 IMAP TR-FRET counter-screen; format: biochemical; settings: read-out: IC50 PLK2 (Ave ± SD)
Procedure: as §1, §2

PKD1 [1] = target: T1, PKD1 (Homo sapiens, UniProt Q15139); assay: Cellular inhibition of PMA-induced PKD1 S916 autophosphorylation in LNCaP cells (Western blot densitometry); format: cell-based; set-up: endogenous in cells; host or cells: LNCaP prostate cancer cells; settings: for IC50: PKD1 autophosphorylation at S916 in LNCaP cells
T1 sequence (Q15139 1-912): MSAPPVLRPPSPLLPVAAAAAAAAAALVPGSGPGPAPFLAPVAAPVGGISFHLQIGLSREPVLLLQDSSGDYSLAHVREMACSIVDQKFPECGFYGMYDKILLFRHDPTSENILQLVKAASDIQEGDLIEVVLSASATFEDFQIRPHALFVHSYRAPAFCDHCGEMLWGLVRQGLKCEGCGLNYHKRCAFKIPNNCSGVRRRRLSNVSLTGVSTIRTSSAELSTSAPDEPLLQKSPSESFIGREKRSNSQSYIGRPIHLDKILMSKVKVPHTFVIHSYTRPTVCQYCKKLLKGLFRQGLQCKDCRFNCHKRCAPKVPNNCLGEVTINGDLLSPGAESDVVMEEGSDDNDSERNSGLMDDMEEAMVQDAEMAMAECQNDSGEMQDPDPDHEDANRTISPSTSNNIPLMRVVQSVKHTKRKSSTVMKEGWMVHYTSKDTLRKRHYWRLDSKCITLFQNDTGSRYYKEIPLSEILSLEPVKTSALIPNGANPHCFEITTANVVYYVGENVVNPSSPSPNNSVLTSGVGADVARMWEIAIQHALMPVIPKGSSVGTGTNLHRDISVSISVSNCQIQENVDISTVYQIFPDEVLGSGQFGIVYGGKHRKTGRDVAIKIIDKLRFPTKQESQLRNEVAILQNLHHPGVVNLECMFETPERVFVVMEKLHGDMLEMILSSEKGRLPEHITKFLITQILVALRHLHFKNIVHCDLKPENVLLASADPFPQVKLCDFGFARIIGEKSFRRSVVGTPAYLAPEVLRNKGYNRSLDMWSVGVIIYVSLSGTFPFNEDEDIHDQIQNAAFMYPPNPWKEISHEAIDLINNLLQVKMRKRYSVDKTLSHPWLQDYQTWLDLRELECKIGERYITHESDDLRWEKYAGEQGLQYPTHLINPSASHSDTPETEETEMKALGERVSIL
Procedure: The compound to be tested was dissolved in DMSO at an initial concentration of 10 mM. LNCaP prostate cancer cells were pre-treated with DMSO or increasing concentrations of the compound for 45 min, followed by treatment with or without 100 nM phorbol 12-myristate 13-acetate (PMA), an activator of PKD, for 20 min. The cells were harvested for Western blot analysis.
Briefly, cells were lysed in lysis buffer containing 200 mM Tris-HCl, pH 7.4, 100 μM 4-(2-aminoethyl)benzenesulfonyl fluoride, 1 mM EGTA, and 1% Triton X-100. Protein concentration was determined using the BCA Protein Concentration Assay reagent kit (Pierce). Equal amounts of protein were subjected to SDS-PAGE followed by electrotransfer to nitrocellulose membranes. Membranes were blocked with 5% nonfat milk in Tris-buffered saline and then probed with primary antibodies for p-S916-PKD1 (Millipore), p-S744/748-PKD1 (Cell Signaling Technology), or GAPDH (Enzo), followed by anti-mouse or anti-rabbit secondary antibodies conjugated to horseradish peroxidase (Bio-Rad). The bands were detected by incubating with the enhanced chemiluminescence (ECL) Western blotting detection reagent (Amersham Biosciences) and exposing to X-ray films.

PLK1 = PLK1 (Homo sapiens, UniProt P53350); assay: IMAP PLK1 TR-FRET counter-screen; format: biochemical; settings: read-out: IC50 PLK1 (Ave ± SD)
Procedure: as §1, §2

PKD1 [2] = target: T1, PKD1; assay: IMAP-FP PKD1 assay; format: biochemical
From the text: See Sharlow, E. R., et. al., J Biol Chem, 283: 33516-33526, (2008). The assay established the concentration of inhibitor that is required to reduce PKD1 activity by 50% (IC50), as shown in Table 2 above.

[3] = target: T2, purified recombinant human PKD1 (Homo sapiens, UniProt Q15139); assay: radiometric PKD kinase activity assay; format: biochemical
T2 sequence (Q15139 1-912): T1 sequence (Q15139 1-912)
Procedure: The radiometric PKD kinase assay was carried out by co-incubating 0.5 μCi γ-32P-ATP (PerkinElmer, Boston, Mass.), 20 μM ATP, 50 ng purified recombinant human PKD (PKD1, PKD2, PKD3) proteins, and 2.5 μg Syntide-2 (Sigma) in 50 μl kinase buffer that contains 50 mM Tris-HCl, pH 7.5, 4 mM MgCl2, 10 mM β-mercaptoethanol. The reaction was carried out under sub-saturation conditions, such that the initial rate was within linear kinetic range. The reaction mixture was incubated at 30° C. for 10 min, followed by spotting 25 μl of the mix onto a Whatman P81 filter paper (Whatman Inc, Clifton, N.J.). The filter papers were then washed three times in 0.5% phosphoric acid, air-dried, and counted using a Beckman LS6500 multi-purpose scintillation counter (Beckman, Fullerton, Calif.).

[4] = stability in protic solvents; format: physicochemical
[5] = radiometric kinase activity assay, in vitro, read-out: IC50 PKD1
[6] = read-out: IC50 radiometric PKD1

PLK2, sequence (Q9NYY3 whole entry, species assumed): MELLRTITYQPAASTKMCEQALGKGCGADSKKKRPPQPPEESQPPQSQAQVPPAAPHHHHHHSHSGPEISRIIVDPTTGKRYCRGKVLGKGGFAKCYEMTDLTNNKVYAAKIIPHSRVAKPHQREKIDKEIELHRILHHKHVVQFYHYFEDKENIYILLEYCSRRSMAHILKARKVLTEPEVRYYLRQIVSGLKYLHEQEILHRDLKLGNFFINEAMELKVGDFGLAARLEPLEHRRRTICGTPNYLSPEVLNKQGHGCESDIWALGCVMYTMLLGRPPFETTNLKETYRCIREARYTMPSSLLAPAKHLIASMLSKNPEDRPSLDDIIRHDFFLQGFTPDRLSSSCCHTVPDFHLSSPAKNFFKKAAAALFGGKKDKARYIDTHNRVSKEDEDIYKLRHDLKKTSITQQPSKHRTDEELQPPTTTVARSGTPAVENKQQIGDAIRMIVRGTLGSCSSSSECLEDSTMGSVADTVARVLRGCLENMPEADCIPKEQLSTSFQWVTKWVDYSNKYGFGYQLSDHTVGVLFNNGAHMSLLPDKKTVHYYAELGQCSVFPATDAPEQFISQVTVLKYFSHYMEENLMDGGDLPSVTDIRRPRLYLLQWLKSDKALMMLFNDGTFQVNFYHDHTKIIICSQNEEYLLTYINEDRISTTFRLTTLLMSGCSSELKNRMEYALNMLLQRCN
CAK (CDK7), sequence (P50613 whole entry, species assumed): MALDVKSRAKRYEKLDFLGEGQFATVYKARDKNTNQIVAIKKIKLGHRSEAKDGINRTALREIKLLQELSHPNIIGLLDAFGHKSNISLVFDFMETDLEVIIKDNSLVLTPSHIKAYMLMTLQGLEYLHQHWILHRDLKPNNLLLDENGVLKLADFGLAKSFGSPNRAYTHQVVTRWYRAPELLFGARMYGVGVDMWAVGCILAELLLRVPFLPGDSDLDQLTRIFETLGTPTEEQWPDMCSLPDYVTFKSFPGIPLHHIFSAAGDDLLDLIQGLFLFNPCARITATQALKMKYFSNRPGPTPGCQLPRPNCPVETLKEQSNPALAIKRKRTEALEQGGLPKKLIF
CAK (CDK7), sequence (P51946 whole entry partner, species assumed): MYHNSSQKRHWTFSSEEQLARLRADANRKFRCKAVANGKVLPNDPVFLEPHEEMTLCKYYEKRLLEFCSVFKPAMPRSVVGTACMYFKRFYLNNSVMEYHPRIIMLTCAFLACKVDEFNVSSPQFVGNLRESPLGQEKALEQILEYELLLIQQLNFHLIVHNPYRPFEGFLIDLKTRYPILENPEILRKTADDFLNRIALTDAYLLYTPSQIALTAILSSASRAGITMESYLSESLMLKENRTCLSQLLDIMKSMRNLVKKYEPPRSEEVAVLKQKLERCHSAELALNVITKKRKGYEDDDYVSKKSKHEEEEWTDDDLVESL
CAK (CDK7), sequence (P51948 whole entry partner, species assumed): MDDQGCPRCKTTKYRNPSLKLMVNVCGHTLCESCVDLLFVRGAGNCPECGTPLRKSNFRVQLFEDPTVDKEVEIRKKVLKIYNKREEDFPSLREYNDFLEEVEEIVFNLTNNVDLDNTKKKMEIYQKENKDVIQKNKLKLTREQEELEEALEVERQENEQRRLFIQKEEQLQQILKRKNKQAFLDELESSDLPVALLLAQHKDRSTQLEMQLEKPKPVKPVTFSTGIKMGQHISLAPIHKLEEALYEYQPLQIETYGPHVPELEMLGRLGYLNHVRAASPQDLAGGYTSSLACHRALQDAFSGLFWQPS
PLK1, sequence (P53350 whole entry, species assumed): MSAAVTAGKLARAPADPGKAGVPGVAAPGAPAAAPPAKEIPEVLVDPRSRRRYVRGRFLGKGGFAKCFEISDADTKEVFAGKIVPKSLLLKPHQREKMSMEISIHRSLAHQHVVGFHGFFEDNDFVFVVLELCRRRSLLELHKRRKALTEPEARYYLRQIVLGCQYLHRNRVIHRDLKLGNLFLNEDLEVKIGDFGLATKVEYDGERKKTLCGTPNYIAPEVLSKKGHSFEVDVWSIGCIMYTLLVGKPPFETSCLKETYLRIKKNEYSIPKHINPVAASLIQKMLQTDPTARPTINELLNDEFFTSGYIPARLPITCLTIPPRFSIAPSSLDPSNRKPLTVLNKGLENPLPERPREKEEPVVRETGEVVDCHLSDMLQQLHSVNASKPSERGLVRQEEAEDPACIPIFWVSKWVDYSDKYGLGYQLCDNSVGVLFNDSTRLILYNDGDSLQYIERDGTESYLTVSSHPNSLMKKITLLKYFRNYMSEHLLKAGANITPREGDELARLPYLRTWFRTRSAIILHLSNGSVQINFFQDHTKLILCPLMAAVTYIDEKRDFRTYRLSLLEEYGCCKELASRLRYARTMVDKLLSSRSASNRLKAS

Row | SMILES | IC50 (CAK (CDK7)) [µM] | IC50 (AKT) [µM] | IC50 (PLK2) [µM] | IC50 (PKD1 [1]) | cellular PKD1 inhibition, in words (PKD1 [1]; PMA-induced PKD1 autophosphorylation at S916, LNCaP) | IC50 (PLK1) [µM] | IC50 (PKD1 [2]) [nM] | IC50 [3, 5] [nM] | melting point | PKD inhibition, in words [3] | IC50 [3, 6] [nM] | stability in protic solvents [4] | cellular IC50 fold lower than CID755673 (PKD1 [1]) [fold] | fold more potent than CID755673 (in vitro PKD1 IC50) [3] [fold]
1 | O=C1NCCCc2c1[nH]c1ccc(O)cc21 [kb-NB123-57, 3,4,5,10-Tetrahydro-7-hydroxy-azepino[3,4-b]indol-1(2H)-one] | 39.2 ± 10.2 | > 100 | > 100 | > 50000 nM | no significant cellular activity; also recorded: weaker inhibition | > 100 | 2140 ± 120 | 130 |  |  |  |  |  | 
2 | O=C1NCCCSc2c1sc1ccc(O)cc21 [kb-NB165-92, 2,3,4,5-Tetrahydro-10-hydroxybenzo[b]thieno[2,3-f]-1,5-thiazocin-6-one] | 11 ± 3.3 | > 50 | 28 ± 3.1 | 2600 nM and 2560 nM |  | 13 ± 7.7 |  | 111 ± 6 |  |  |  |  |  | 
3 | COc1ncc2sc3c(c2n1)SCCNC3=O [kmg-NB4-23, 2-Methoxy-7H,8H,9H-1,4-thiazepino[7′,6′-5,4]thiopheno[3,2-d]pyrimidin-6-one] | > 100 | > 100 | > 100 | 6800 ± 1300 nM |  | > 100 |  | 124 | 308 °C (dec.) | potent nanomolar inhibitor | 120 ± 30 |  |  | 
4 | COc1ccc2sc3c(c2c1)SCCNC3=O [kb-NB165-09, 3,4-Dihydro-9-methoxy-[1]benzothieno[2,3-f]-1,4-thiazepin-5(2H)-one] | 17.1 ± 13.6 | > 50 | > 50 | 3100 ± 500 nM |  | > 50 |  | 82.5 ± 4.6 |  |  |  |  |  | 
5 | O=C1NCCSc2c1sc1cnc(O)nc21 [kmg-NB4-69A, 2-Hydroxy-7H,8H,9H-1,4-thiazepino[7′,6′-5,4]thiopheno[3,2-d]pyrimidin-6-one] |  |  |  |  |  |  |  |  |  | only weak inhibitory effect | 25300 | spontaneously degrade in protic solvents |  | 
6 | O=C1NCCSc2c1sc1ccc(O)cc21 [kb-NB142-70, 3,4-Dihydro-9-hydroxy-[1]benzothieno[2,3-f]-1,4-thiazepin-5(2H)-one] | 12 ± 0.6 | > 100 | 39 ± 3.4 | 2200 nM |  | 17 ± 7.7 |  | 28.3 ± 2.3 |  |  |  |  | 5 | ~7
7 | COc1ccc2sc3c(c2c1)SCCCNC3=O [kb-NB184-02, 2,3,4,5-Tetrahydro-10-methoxybenzo[b]thieno[2,3-f]-1,5-thiazocin-6-one] | 9 ± 4.1 | > 100 | > 50 | 18600 ± 2000 nM |  | > 50 |  | 193 ± 27 |  |  | 190 ± 30 |  |  | 
8 | [N-]=[N+]=Nc1ccc2sc3c(c2c1)SCCNC3=O [mcf292-08, 3,4-Dihydro-9-azido-[1]benzothieno[2,3-f]-1,4-thiazepin-5(2H)-one] | > 50 | > 50 | > 50 | 2200 nM and 2170 nM |  | > 50 |  | 74.9 | 193 °C (dec.) |  | 80 ± 10 |  |  | 
